Where “and” joins values, the source holds several entries; their conditions need not be identical. Identical values can stand only once.
What was measured:
Type in all cases: cell-based, human
[1] = test system: THP-1 cells; assay: Inflammatory factor gene expression (MCP-1, TNFα) in PMA-activated THP-1 cells (qPCR); settings: 6 hours, FIG. 5
Experimental: Human acute monocytic leukemia mononuclear cell line (THP-1) cells were activated by a certain concentration of phorbol esters (Phorbol-12-myristate-13-acetate, PMA) and differentiated into macrophages. Through this cell model, the activating effects of sodium chiglitazar and other compounds on the expression of THP-1 related inflammatory factors were detected.
THP-1 cells were seeded into 6-well plates with complete growth media for 24 hours, and then the culture media were replaced by fresh media containing PMA and the compound to be tested (sodium chiglitazar) or the reference compound GFT505 (PPARα/δ dual agonist), and the cells were cultured for 6 hours. The total RNAs of the samples were extracted, and cDNA templates were synthesized by reverse transcription reaction (Transcriptor First Strand cDNA Synthesis Kit, Roche). Thereafter, a conventional PCR amplification kit (FastStart Universal SYBR@ Green Master (ROX), Roche) was used for semi-quantitative gene expression detection on the ABI StepOnePlus real-time quantitative PCR instrument.
The relative expression change of the target genes was obtained by using the internal reference β-actin gene (ACTB) as the standard for normalization, compared with the untreated cell samples, and the relative expression change folds were calculated (FIG. 5).

[2] = test system: α-smooth muscle actin (α-SMA); assay: TGF-β1-activated hepatic stellate cells, α-SMA gene expression (qPCR); settings: TGF-β1 stimulation, 24 hours; FIG. 4
Experimental: Human primary hepatic stellate cells were seeded into 6-well plates with complete growth media (Stellate Cell Medium) for 24 hours, and then the culture media were replaced by fresh media (free of serum and growth factors) containing TGF-β1 and the compound to be tested (sodium chiglitazar) or the reference compound PPARγ/α dual agonist pioglitazone or PPARα/δ dual agonist GFT505 (both purchased from Selleck), and the cells were cultured for 24 hours. The total RNAs of the samples were extracted, and reverse transcription reaction was performed. Thereafter, a conventional PCR amplification kit (FastStart Universal SYBR@ Green Master (ROX), Roche) was used for further detection, where the PCR primers were designed with reference to the NCBI standard mRNA sequence of the target genes (Table 2). PCR reaction and detection were carried out on the ABI StepOnePlus real-time quantitative PCR instrument. By calculating the relative amount of transcripts was calculate by “Delta-Delta CT method” (Livak et al. Methods 2001), and using ACTB as the housekeeping gene for normalization and the average data of untreated human hepatic stellate cells as a reference control, the relative change folds of gene expression were obtained (FIG. 4).

[3] = test system: monocytic cell line THP-1; assay: MCP-1-induced chemotaxis of THP-1 cells (Transwell); settings: MCP-1 10 ng/mL, compound 3 μmol/L; for Cell concentration in lower chamber, Mean value / Cell concentration in lower chamber, single replicates: 24 hours pretreatment, 4 hours migration; for Migration rate: solvent control + MCP-1 = 100
Excerpt: In an in vitro model, migration of the monocytic cell line THP-1 induced by a certain concentration of chemokines (such as monocyte chemotactic protein 1, MCP-1), and accordingly such in vivo process was mimicked. Transwell technology, according to the manufacturer's instructions from Corning Inc., is considered that Traswell is a kind of a polycarbonate membrane filter as well as a permeable holder. The polycarbonate membrane divides a culture chamber into upper and lower ones, where the components of the culture medium in the lower chamber can affect the growth, differentiation and movement of the cells in upper chamber. Finally, the cell migration ability can be reflected by staining and counting the cells in the lower chamber.
When cultured to the log phase stage, THP-1 cells were resuspended, adjusted the concentration, and seeded in 24-well plates, followed by being pretreated with the culture media containing the compound to be tested (sodium chiglitazar) or the reference compound GFT505, pioglitazone, or PPARγ single agonist rosiglitazone (all purchased from Selleck) for 24 hours. Transwells were used according to the manufacturer's instructions. The culture media containing chemokine MCP-1 were added to the lower chamber (i.e., the bottom of the 24-well plates), and the cell suspension was added to the upper chamber and cultured for 4 hours. Later, the cells cultured on the “ceiling” surface of the polycarbonate membrane were fixed and stained with crystal violet solution (FIG. 6), and then the number of cells in the lower chamber was counted (Table 3).

SMILES | Inhibition of phorbol esters-mediated activation of monocyte and related gene expression [1] | Effect on expression of α-smooth muscle actin [2] | Cell concentration in lower chamber, Mean value [3] [cells/ml] | Cell concentration in lower chamber, single replicates [3] | Migration rate [3] [%]
CSc1ccc(C(=O)/C=C/c2cc(C)c(OC(C)(C)C(=O)O)c(C)c2)cc1 [GFT505] | significantly inhibit | a certain inhibitory effect | 28175 | 28443 cells/ml and 28511 cells/ml and 27572 cells/ml | 102.55
CCc1ccc(CCOc2ccc(CC3SC(=O)NC3=O)cc2)nc1 (stereo not drawn) [pioglitazone] | – | no effect | 17514 | 17529 cells/ml and 17416 cells/ml and 17597 cells/ml | 61.80
